Where “and” joins values, the source holds several entries; their conditions need not be identical. Equal values may be shown once.
Legend:
hAng-2-WT = biological target: T1, hAng-2-WT (Homo sapiens, UniProt O15123); test: SPR binding to full-length wild-type human Ang-2 (preferential binding)
T1 construct: wild-type human Ang-2 (hAng-2-WT)
T1 sequence (O15123 19-496): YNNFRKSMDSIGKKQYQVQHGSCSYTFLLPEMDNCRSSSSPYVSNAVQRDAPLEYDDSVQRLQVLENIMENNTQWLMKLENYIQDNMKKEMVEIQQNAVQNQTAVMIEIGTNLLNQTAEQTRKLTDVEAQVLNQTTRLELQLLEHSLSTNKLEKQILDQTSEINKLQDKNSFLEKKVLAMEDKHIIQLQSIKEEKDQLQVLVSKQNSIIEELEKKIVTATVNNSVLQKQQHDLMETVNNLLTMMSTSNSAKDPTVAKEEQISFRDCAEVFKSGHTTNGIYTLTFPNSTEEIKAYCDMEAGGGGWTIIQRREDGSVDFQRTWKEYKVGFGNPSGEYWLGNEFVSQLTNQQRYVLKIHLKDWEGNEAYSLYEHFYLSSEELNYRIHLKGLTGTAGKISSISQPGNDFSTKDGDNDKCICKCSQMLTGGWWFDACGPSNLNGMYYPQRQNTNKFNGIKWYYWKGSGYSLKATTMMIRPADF
Protocol: Binding experiments (plasmon resonance assays) were conducted to ascertain whether selected antibodies bound to both Ang-2 and Ang-1 or if they preferentially bound to Ang-2 only. Each selected antibody or control construct was captured at a flow rate of 40 μL/min for 1 minute on a goat anti-human IgG polyclonal antibody surface created through direct chemical coupling to a BIACORE™ chip to form a captured antibody surface. Full-length wild-type human Ang-1 or Ang-2 at a concentration of 25 nM or 0.78 nM were injected over the captured antibody surface at a flowrate of 60 μL/min for 3 minutes, and antigen-antibody dissociation was monitored in real time for 20 minutes at either 25° C. or 37° C.

Dimeric Human Ang-2FD = biological target: T2, Dimeric Human Ang-2FD (Homo sapiens, UniProt O15123); test: Surface plasmon resonance binding to dimeric human Ang-2FD conjugated to human IgG1; details: SPR, room temperature
T2 sequence (O15123 282-496): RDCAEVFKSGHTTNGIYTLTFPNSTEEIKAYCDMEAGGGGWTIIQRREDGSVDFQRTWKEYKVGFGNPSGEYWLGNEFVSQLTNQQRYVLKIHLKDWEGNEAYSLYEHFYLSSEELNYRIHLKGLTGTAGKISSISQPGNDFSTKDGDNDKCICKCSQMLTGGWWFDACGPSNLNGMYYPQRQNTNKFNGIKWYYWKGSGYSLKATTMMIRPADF
Protocol: Equilibrium dissociation constants (KD values) for the binding of selected purified Ang-2 antibodies to dimeric fibrinogen-like domain of human (SEQ ID NO: 519), mouse (Mus musculus; SEQ ID NO: 520) and monkey (Macca fascicularis; SEQ ID NO: 521) Ang-2 (Ang-2FD) conjugated to human IgG1 (SEQ ID NO:528) were determined by surface kinetics using a real-time biosensor surface plasmon resonance assay. Antibody was captured on a goat anti-mouse IgG polyclonal antibody surface, a goat anti-human κ polyclonal antibody (Southern Biotech, Birmingham, Ala.) surface or a goat anti-human IgG polyclonal antibody (Jackson Immuno Research Lab, West Grove, Pa.) surface created through direct amine coupling to a BIACORE™ CM5 sensor chip to form a captured antibody surface. Varying concentrations (ranging from 50 nM to 6.25 nM) of protein were injected at 100 μl/min over captured antibody surface for 90 seconds. Antigen-antibody binding and dissociation were monitored in real time at room temperature. Kinetic analysis was performed to calculate KD and half-life of antigen/antibody complex dissociation.
The above experiment was repeated using selected purified anti-Ang-2 antibodies cloned onto human IgG1.

hAng-2FD-mFc I-434-M = biological target: T3, hAng-2FD-mFc I-434-M (Homo sapiens, UniProt O15123, I434M); test: Ang-2FD-mFc point mutant binding experiment (SPR), I-434-M; details: I-434-M mutant captured; antibody/peptibody at 100 nM; 25° C.
T3 construct: made in house
T3 sequence (O15123 with tags, fused parts or gaps I434M): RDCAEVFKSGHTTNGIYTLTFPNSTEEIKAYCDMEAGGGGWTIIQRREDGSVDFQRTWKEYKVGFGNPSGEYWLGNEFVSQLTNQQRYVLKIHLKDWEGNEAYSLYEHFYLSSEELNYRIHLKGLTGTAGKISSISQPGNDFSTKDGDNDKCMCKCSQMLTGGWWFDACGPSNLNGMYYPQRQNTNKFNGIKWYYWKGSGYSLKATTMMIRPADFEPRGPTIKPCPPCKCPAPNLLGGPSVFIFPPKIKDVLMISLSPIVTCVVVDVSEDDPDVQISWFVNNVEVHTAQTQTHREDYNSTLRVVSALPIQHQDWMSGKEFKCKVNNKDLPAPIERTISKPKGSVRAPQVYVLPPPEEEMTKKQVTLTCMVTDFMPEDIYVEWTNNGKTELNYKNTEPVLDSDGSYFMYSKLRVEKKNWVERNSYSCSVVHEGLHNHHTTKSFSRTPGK
From the text: (§1) To further characterize binding between hAng2 and anti-hAng2 mAbs of the invention, seven variant hAng2-FD-mFc proteins were generated, each containing a single point mutation. Amino acids selected for mutation were based on the difference in sequence between hAng-2 and hAng-1 in the region that interacts with hTie-2 (FIG. 1). In particular, amino acids within the fibrinogen-like domain (FD) of Ang-2 which are believed to interact with Tie-2 based on crystal structure analysis, but which differ from the corresponding amino acid in Ang-1, were individually mutated to the corresponding hAng-1 residue. The results of this example indicate the amino acid residues of hAng-2 with which the Ang-2 preferential binding antibodies interact.
(§2) In this experiment, each of the seven hAng-2FD-mFc mutant proteins were captured (˜147-283 RU) on an anti-mouse-Fc surface created through direct chemical coupling to a BIACORE™ chip. Then each Ang-2 antibody (or peptibody, as the case may be) at 100 nM was injected over the captured mFc-tagged hAng-2FD protein surface at a flowrate of 50 μl/min for 180 sec, and the dissociation of variant hAng2-FD-mFc and antibody was monitored in real time for 20 min at 25° C.

[1] = test system: PC3 (Human Prostate Cancer Cell Line) tumors; test: PC3 mouse tumor model; assay type: in vivo, NCr nude mice
Protocol: Briefly, 5×10^6 PC3 cells in 100 μl of growth factor-reduced Matrigel (BD Biosciences) were injected subcutaneously into the flanks of 6-8 week old male NCr nude mice (Taconic, Hudson, N.Y.). After tumor volumes reached an average of about 200 mm^3, mice were randomized into groups for treatment. […] Tumor volumes were measured twice per week over the course of the experiment and tumor weights were measured upon excision of tumors at the conclusion of the experiment. Averages (mean+/−standard deviation) of tumor weight and growth were calculated for each treatment group. Percent decrease of tumor weight and growth were calculated from comparison to Fc protein measurements.

WT Ang-2FD-mFc construct = WT Ang-2FD-mFc construct (Homo sapiens, UniProt O15123); test: Ang-2FD-mFc point mutant binding experiment (SPR), wild-type; details: WT hAng-2FD-mFc captured; antibody/peptibody at 100 nM; 25° C.
WT Ang-2FD-mFc construct, sequence (O15123 with tags, fused parts or gaps): as the sequence (O15123 with tags, fused parts or gaps I434M) above, with M153I counted along it
From the text: as §1, §2

[2] = PC3, 2.5 mg/kg subcutaneous twice per week
[3] = PC3, 10 mg/kg intraperitoneal twice per week, vs Fc protein
[4] = PC3, 12.5 mg/kg subcutaneous twice per week
[5] = PC3, 25 mg/kg subcutaneous twice per week

H1H685P: human anti-Ang-2 antibody, HCVR/LCVR SEQ ID NOs 18/20; also referred to as mAb1 [Antibody H1H685P]
kd, binding to hAng-2-WT (hAng-2-WT; 25° C.): 1.6e-05 s⁻¹ and 8.5e-06 s⁻¹ | kd, binding to hAng-2-WT (hAng-2-WT; 37° C.): 3.76e-05 s⁻¹ and 2.16e-05 s⁻¹ | Kd (Dimeric Human Ang-2FD): 0.0714 nM | Kd (hAng-2FD-mFc I-434-M): 0.0179 nM | RU (hAng-2FD-mFc I-434-M): 235.95 RU | % Decrease in Tumor Growth [1, 2]: 70% | Avg Tumor Growth [1, 2]: 308 ± 274 mm^3 | Avg Tumor Weight ([1]; PC3, 10 mg/kg intraperitoneal twice per week, approximately three weeks, mean ± SD): 0.44 ± 0.12 g | Avg Tumor Growth ([1]; PC3, 10 mg/kg intraperitoneal twice per week, mean ± SD): 305 ± 143 mm^3 | % Decrease in Tumor Growth [1, 3]: 40% | % Decrease in Tumor Weight [1, 3]: 33% | % Decrease in Tumor Growth [1, 4]: 47% | Avg Tumor Growth [1, 4]: 550 ± 150 mm^3 | % Decrease in Tumor Growth [1, 5]: 60% | Avg Tumor Growth [1, 5]: 413 ± 208 mm^3 | Anti-tumor activity in the PC3 mouse tumor model (in words) ([1]; as compared to the control constructs): especially marked anti-tumor activity | Kd (WT Ang-2FD-mFc construct): 0.0223 nM | RU (WT Ang-2FD-mFc construct): 210.70 RU

Reference: patent US9926369B2, “Methods for treating hepatocellular cancer by administering an anti-Ang-2 antibody” (Regeneron Pharmaceuticals, Inc., priority 2009, dated 2018)
